Data: patent publication US10865203B2, “Ligands selective to alpha 6 subunit-containing GABAA receptors and their methods of use” (UWM Research Foundation, Inc., priority 2015, dated 2020)
“Also recorded” adds a separate entry of the source.

How the values were obtained:
male Wistar rats = assay: Rotarod performance, pilot experiment; type: in vivo, rat; conditions: acute, dose range 10-55 mg/kg, 20 min after administration
IoN-CCl Wistar rats = assay: IoN-CCl model, face grooming during body grooming; type: in vivo, rat; conditions: 10 mg/kg i.p. daily; 10 min of recording
Procedure: Chronic constriction injury (CCl) is a common neuropathic pain model. The unilateral ligature of the infraorbital nerve (IoN) in rats, as an animal model of peripheral neuropathic pain, and more specifically, trigeminal neuralgia and trigeminal neuropathy, was performed as described by Desuere and Hans (Deseure et al. J. Vis. Exp. 2015, 103, e53167). Wistar rats (46 in total) were randomly assigned to one of four experimental groups and then were behaviorally tested in a blinded manner. For studying the effects of subchronic treatment with the nanoemulsion formulation of DK-I-56-1 in IoN-CCl rats, DK-I-56-1 (10 mg/kg i.p.) or its vehicle (placebo nanoemulsion i.p.) were injected daily for 14 consecutive days after surgery. Sham-operated rats were treated in parallel. By a procedure slightly modified from Djordjevic et al. (Int. J. Pharm. 2015, 493, 40-54), biocompatible nanoemulsions were prepared by high pressure homogenization at 50° C. […] First, the response to the application of a graded series of three von Frey filaments onto ipsilateral vibrissal pad was measured on pre-operative days −3 and −1 and post-operative days 7, 14, 21, and 28. […] The other parameter, face grooming during body grooming, was manually assessed during 10 min of recording on pre-operative day −2 and post-operative days 2, 4, 8, and 15 (i.e. after 1, 3, 7, and 14 applications of treatment). […]

[1] = system: mice, forelimb grip strength; assay: Grip strength test; type: in vivo, mouse; conditions: 3 mg/kg, 15 min after treatment
Procedure: Forelimb grip strength was measured by the grip force of forepaws of the mouse using the sdi grip strength system (San Diego Instrument, San Diego, Calif.). The grip strength was recorded by the maximum of three permissible readings (in grams). The test was conducted every 2 min for three times, and the averaged grip strength was recorded. Animals were treated with the tested drug or vehicle for 15 min before the test.

[2] = system: c-Fos-ir neurons in the TNC of Wistar rats; assay: Migraine model: capsaicin (i.c.)-induced neuronal activation in the TCC; type: in vivo, rat; conditions: i.p., capsaicin 10 nmol i.c., 2 hours after
Procedure: Intra-cisteral instillation of capsaicin. Under anesthesia with chloral hydrate (400 and 100 mg/kg, i.p., respectively, for inducing and maintaining), the rat received a midline skin incision from the occipital protuberance to the upper cervical area. After catheterization with a catheter (PE-10, SIMS Portex Ltd, Hythe, UK) inserted 3 mm deep into the cisterna magna, the rat was placed in a prone position for 6 h. Then, the capsaicin solution (10 nmol, 100 μL) was instilled through the catheter into the cisterna magna over 1 min. The rat was then placed in a reverse Trendelenburg position (−30 degrees) for 30 min in order to facilitate capsaicin distribution within the subarachnoid space, followed by the prone position for another 90 min. […]
Measurement of the total number of C-fos-ir neurons in the TCC. C-Fos-ir neurons, i.e., neurons with stained nuclei, were counted under a microscope (Olympus BX51, Essex, UK) by an observer blinded to the treatment group. […] The total number of c-Fos-ir TCC neurons were estimated based on the formular derived in our previous study (Fan et al., 2012): 16(N1+N2)/2+53(N2+N3)/2, where N1, N2, and N3 were the c-Fos-ir neuronal numbers measured at […] from the obex, respectively.

SMILES | rotarod performance (male Wistar rats) | face grooming during body grooming (IoN-CCl Wistar rats) | grip strength [1] | number of c-Fos-ir neurons in the TNC induced by i.c. capsaicin [2]
[2H]C([2H])([2H])Oc1ccc(-n2nc3c4ccc(OC)cc4[nH]cc-3c2=O)cc1 [DK-I-56-1, 7-Methoxy-2-(4-methoxy-d3-phenyl)-2,5-dihydro-3H-pyrazolo[4,3-c]quinolin-3-one] | did not impair | lack of sedation-like or motor-impairing influences |  | 
COc1ccc(-n2nc3c4ccc(OC)cc4[nH]cc-3c2=O)cc1 [Compound 6, 7-Methoxy-2-(4-methoxyphenyl)-2,5-dihydro-3H-pyrazolo[4,3-c]quinolin-3-one] |  |  | did not affect | significantly decreased; also recorded: reduces
